Measurements reported in ChEMBL document CHEMBL1201862, “PubChem BioAssay data set” (2004).
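Grown in 96-well plates, cells were treated for 48 hours with each compound at five concentrations. Insufficient inhibition: endpoint recorded as highest concentration tested. At the GI50, growth is halved.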 The source made the active and inactive calls. Rule as the data show it: active = GI50 up to about 1.1 µM and inactive = higher.

How the values were obtained:
Test in all cases: NCI anticancer screen, dose series, 48 h
UACC-62 = tested on: UACC-62
SK-MEL-5 = tested on: SK-MEL-5
OVCAR-8 = tested on: OVCAR-8
Malme-3M = tested on: Malme-3M
SNB-75 = tested on: SNB-75
KM12 = tested on: KM12
K562 = tested on: K562
UACC-257 = tested on: UACC-257
SF-268 = tested on: SF-268
SK-OV-3 = tested on: SK-OV-3
NCI-H522 = tested on: NCI-H522
COLO 205 = tested on: COLO 205
TK-10 = tested on: TK-10
HCT-15 = tested on: HCT-15
HOP-62 = tested on: HOP-62
SK-MEL-2 = tested on: SK-MEL-2
IGROV-1 = tested on: IGROV-1
SN12C = tested on: SN12C
OVCAR-4 = tested on: OVCAR-4
SW-620 = tested on: SW-620

Compound	GI50 (UACC-62)	GI50 (SK-MEL-5)	GI50 (OVCAR-8)	GI50 (Malme-3M)	GI50 (SNB-75)	GI50 (KM12)	GI50 (K562)	GI50 (UACC-257)	GI50 (SF-268)	GI50 (SK-OV-3)	GI50 (NCI-H522)	GI50 (COLO 205)	GI50 (TK-10)	GI50 (HCT-15) [µM]	GI50 (HOP-62)	GI50 (SK-MEL-2)	GI50 (IGROV-1)	GI50 (SN12C)	GI50 (OVCAR-4)	GI50 (SW-620)
CC(C)(C)C(=O)OCC1C(=O)OCC1C(=O)N1Cc2cc3ccccc3nc2C1 (centres undefined)	4.51 µM (inactive)	15.2 µM (inactive)	3.99 µM (inactive)	1.46 µM (inactive)	7.74 µM (inactive)	15.8 µM (inactive)	0.728 µM (active)	4.42 µM (inactive)	8.91 µM (inactive)	16.1 µM (inactive)	0.569 µM (active)	0.957 µM (active)	2.15 µM (inactive)	1.75	14.4 µM (inactive)	8.59 µM (inactive)	15 µM (inactive)	5.28 µM (inactive)	2.38 µM (inactive)	1.57 µM (inactive)
Cc1ccc(CCC(=O)C(=O)O)s1	19.4 µM (inactive)	> 100 µM (inactive)	> 100 µM (inactive)	> 100 µM (inactive)	> 100 µM (inactive)	> 100 µM (inactive)	> 100 µM (inactive)	> 100 µM (inactive)	> 100 µM (inactive)	> 100 µM (inactive)	> 100 µM (inactive)	> 100 µM (inactive)	78.7 µM (inactive)	> 100	> 100 µM (inactive)	> 100 µM (inactive)	> 100 µM (inactive)	> 100 µM (inactive)	> 100 µM (inactive)	> 100 µM (inactive)
CCCS(=O)(=O)O	> 100 µM (inactive)	> 100 µM (inactive)	> 100 µM (inactive)	> 100 µM (inactive)	> 100 µM (inactive)	> 100 µM (inactive)	> 100 µM (inactive)	> 100 µM (inactive)	> 100 µM (inactive)	> 100 µM (inactive)	> 100 µM (inactive)	> 100 µM (inactive)	> 100 µM (inactive)	> 100	> 100 µM (inactive)	> 100 µM (inactive)	> 100 µM (inactive)	–	> 100 µM (inactive)	> 100 µM (inactive)
COc1cc2ccc(CC(N)=O)cc2cc1OC	> 100 µM (inactive)	> 100 µM (inactive)	> 100 µM (inactive)	> 100 µM (inactive)	40.3 µM (inactive)	> 100 µM (inactive)	> 100 µM (inactive)	> 100 µM (inactive)	> 100 µM (inactive)	> 100 µM (inactive)	> 100 µM (inactive)	> 100 µM (inactive)	> 100 µM (inactive)	> 100	> 100 µM (inactive)	> 100 µM (inactive)	> 100 µM (inactive)	> 100 µM (inactive)	> 100 µM (inactive)	> 100 µM (inactive)
Cc1nnc(Nc2ccc(Cl)cc2)o1	> 10 µM (inactive)	> 10 µM (inactive)	> 10 µM (inactive)	> 10 µM (inactive)	> 10 µM (inactive)	> 10 µM (inactive)	> 10 µM (inactive)	> 10 µM (inactive)	> 10 µM (inactive)	> 10 µM (inactive)	> 10 µM (inactive)	> 10 µM (inactive)	> 10 µM (inactive)	> 10	> 10 µM (inactive)	> 10 µM (inactive)	> 10 µM (inactive)	> 10 µM (inactive)	> 10 µM (inactive)	> 10 µM (inactive)
